Experimental data: PMC10305617, “Sesquiterpene Coumarin Ethers with Selective Cytotoxic Activities from the Roots of Ferula huber-morathii Peşmen (Apiaceae) and Unequivocal Determination of the Absolute Stereochemistry of Samarcandin” (Pharmaceuticals, 2023)

Legend:
COLO 205 = assay: MTS cell viability (cytotoxic activity) assay, COLO 205; assay type: cell-based, Human; details: Homo sapiens; COLO 205, MTS, 72 h; mean ± SD, at least three experiments
From the text: (§1) Human colorectal cancer (COLO 205, CCL-222), breast cancer (MCF-7, HTB-22), chronic myelogenous leukemia (K-562, CCL-243), and umbilical vein/vascular endothelium (HUVEC, CRL-1730) cell lines were obtained from the American Type Culture Collection. The COLO 205, MCF-7, K-562, and HUVEC cell lines were maintained in Roswell Park Memorial Institute ([…], Wisent, Montreal, QC, CANADA), Eagle′s Minimum Essential Medium (EMEM, Wisent, Montreal, QC, CANADA), Iscove’s Modified Dulbecco’s Medium (IMDM, Wisent, Montreal, QC, CANADA), and Dulbecco′s Modified Eagle Medium (DMEM, Wisent, Montreal, QC, CANADA) supplemented with 10% fetal bovine serum (Capricorn, Ebsdorfergrund, Germany), 100 U/mL penicillin, and 100 µg/mL streptomycin (Wisent, Montreal, QC, CANADA), respectively. All of the cell lines were cultured at 37 °C in a humidified atmosphere containing 5% CO2.
(§2) A 3-[4,5-dimethylthiazol-2-yl]-5-[3-carboxymethoxyphenyl]-2-[4-sulfophenyl]-2H-tetrazolium, inner salt (MTS) cell viability assay was performed to evaluate the cytotoxic activities of the sesquiterpene coumarin ethers isolated from Ferula huber-morathii. HUVEC (1 × 10^4), COLO 205 (3 × 10^4), K-562 (3 × 10^4), and MCF7 (5 × 10^4) were plated in 96-well plates. Then, 24 h later, the tested compounds were dissolved in DMSO, and the cells were exposed to the different concentrations (131.58–1.028 µM) of the compounds for 72 h. Cisplatin and doxorubicin were used as a positive control. Next, an MTS/phenazine methosulfate (PMS) (Promega, Madison, WI, USA and Sigma, St. Louis, MO, USA respectively) mixture was added to each well and incubated for 1–4 h at 37 °C. The absorbance was read on a microplate reader (Biotek, Winooski, VT, USA) at 490 nm. The cytotoxic activities of the compounds were expressed as an IC50 value. The % inhibition of cell proliferation was calculated using the formula: % Inhibition = [1-(A490test/A490cont)] × 100, where A490test = absorbance of the test sample and A490cont = absorbance of the control sample [88]. The values of the 50% inhibition of the cell proliferation (IC50) were calculated by locating the x-axis values corresponding to one-half of the absorbance values of the sample.

cervical (HeLa) = details: cited from earlier work
K-562 = assay: MTS cell viability (cytotoxic activity) assay, K-562; assay type: cell-based, Human; details: for IC50: Homo sapiens, K562, K-562, MTS, 72 h, mean ± SD, at least three experiments
From the text: as §1, §2

MCF-7 = assay: MTS cell viability (cytotoxic activity) assay, MCF-7; assay type: cell-based, Human; details: for IC50: Homo sapiens, MCF7, MCF-7, MTS, 72 h, mean ± SD, at least three experiments
From the text: as §1, §2

ovarian (A2780) = details: ref Soltani et al. 67, read-out: cytotoxic activity A2780; cited from earlier work
lung (A549) = details: cited from earlier work
[1] = test system: chronic myelogenous leukemia (K562); details: cited from earlier work
colon (HCT116) = details: HCT-116; ref Soltani et al. 67; read-out: cytotoxic activity HCT-116; cited from earlier work
HUVEC = assay: MTS cell viability (cytotoxic activity) assay, non-cancerous HUVEC; assay type: cell-based, Human; details: Homo sapiens, 72 h, mean ± SD, at least three experiments
From the text: as §1, §2

[2] = test system: bladder cancer cells (5637); details: bladder (TCC, 5637); cited from earlier work
stomach (AGS) = test system: stomach (AGS); set-up: method as in PMID 25843566, PMID 20961138, PMID 20628935, PMID 22351980, PMID 25818230; details: cited from earlier work
[3] = test system: COLO 205, K-562, MCF-7 and HUVEC cell lines; assay: MTS cytotoxicity, overall verbal grading over the cell line panel; assay type: cell-based, Human; details: authors' verbal summary over COLO 205, K-562, MCF-7, HUVEC
From the text: as §1, §2

β-catenin [4] = assay: Western blot, β-catenin protein level in COLO 205; assay type: cell-based, Human; details: COLO 205, 24 h
Procedure: (§3) To evaluate the effect of mogoltadone (5) on the caspase-3, Bcl-XL and β-catenin protein levels, the COLO 205 cell line was treated with mogoltadone (5) and incubated for 24 h. At the end of the incubation period, the treated cells were harvested. After that, the harvested cells were washed with cold phosphate buffered saline and lysed in a RIPA buffer. The samples were centrifuged at 24,000 g for 45 min at 4° C, and the supernatants were used to determine the procaspase-3, Bcl-XL, β-catenin, and β-actin protein levels by western blot analysis. The cellular proteins were separated on sodium dodecyl sulfate-polyacrylamide gels (SDS-PAGE, AnyKD mini protean TGX precast protein gel, Bio-Rad, Hercules, CA, USA, 4569033). The separated proteins were transferred to the polyvinylidene difluoride (PVDF) membrane using the Trans-Blot Turbo transfer system (Bio-Rad). The membrane was then blocked with a 5% non-fat milk blocking buffer and consecutively incubated with rabbit monoclonal Bcl-XL antibody (1:20,000, ab17884, Abcam), rabbit monoclonal caspase-3 antibody (1:3000, ab3235, Abcam, Cambridge, MA, USA), rabbit monoclonal beta-actin antibody (1:10,000, M01263, BOSTER, Beijing, China), and rabbit polyclonal β-catenin antibody (1/5,000, ab264263, Abcam, Cambridge, MA, USA) overnight at 4° C. […]

Bcl-XL [5] = assay: Western blot, Bcl-XL protein level in HUVEC; assay type: cell-based, Human
[6] = test system: ovarian carcinoma cells (CH1); set-up: method as in PMID 23701832; details: ovarian carcinoma cell line (CH1); cited from earlier work
β-catenin [7] = assay: Western blot, β-catenin protein level in HUVEC; assay type: cell-based, Human
caspase-8 = assay: Caspase-8 colorimetric activity assay in COLO 205 cells; assay type: cell-based, Human; details: COLO 205, 24 h, highest concentration (131.58 µM)
Procedure: (§4) The caspase-3, -8, and -9 activities were detected by following the protocol of the caspase-3, -8, -9 colorimetric assay kits (Biovision, K106, K113, K119, Mountain View, CA, USA). The cells treated with mogoltadone (5) for 24 h were harvested and lysed with a RIPA (50 mM Tris-HCl, pH 8.0, 150 mM NaCl, 1% Nonidet P-40, 0.5% sodium deoxycholate and 0.1% SDS) cell lysis buffer. The lysed cells were centrifuged at 22,000 g for 30 min and the supernatant was collected in a tube. The samples (200 µg protein) were incubated with caspase substrates (final concentration, 200 µM) at 37° C for 2 h and read on a microplate reader at 405 nm. The fold-increase in enzyme activity was detected by comparison with the untreated control.

procaspase-3 = assay: Western blot, procaspase-3 protein level in COLO 205; assay type: cell-based, Human; details: COLO 205, 24 h, significant at 131.58 µM
Procedure: as §3

caspase-3 [8] = assay: Western blot, caspase-3 protein level in HUVEC; assay type: cell-based, Human
Procedure: as §3

melanoma (SK-MEL-28) = details: ref Valiahdi et al. 29; cited from earlier work
[9] = test system: MCF-7 breast cancer cell line; details: read-out: cytotoxic effect MCF-7; cited from earlier work
[10] = test system: cisplatin-resistant derivatives of the human ovarian (A2780P A2780/RCIS); details: cited from earlier work
Bcl-XL [11] = assay: Western blot, Bcl-XL protein level in COLO 205; assay type: cell-based, Human; details: COLO 205, 24 h
Procedure: as §3

caspase-9 = assay: Caspase-9 colorimetric activity assay in COLO 205 cells; assay type: cell-based, Human; details: COLO 205, 24 h, highest concentration (131.58 µM)
Procedure: as §4

caspase-3 [12] = assay: Caspase-3 colorimetric activity assay in COLO 205 cells; assay type: cell-based, Human; details: COLO 205, 24 h, highest concentration (131.58 µM)
Procedure: as §4

CC1=CC[C@@H]2C(C)(C)[C@H](O)CC[C@@]2(C)[C@@H]1COc1ccc2ccc(=O)oc2c1 [Feselol (3), feselol]
IC50 (COLO 205): 38.4 ± 0.8 µM | cytotoxic activity on HeLa, in words (cervical (HeLa)): did not show any cytotoxic activity | IC50 (cervical (HeLa); ref Soltani et al. 67, read-out: cytotoxic activity HeLa): 35 µM | IC50 (K-562): 72.5 ± 0.74 µM | IC50 (MCF-7): 36 ± 1.29 µM | IC50 (ovarian (A2780)): 20 µM | IC50 (lung (A549); ref Soltani et al. 67, read-out: cytotoxic activity A549): 26 µM | cytotoxic activity on K562, in words [1]: did not show any cytotoxic activity | IC50 (colon (HCT116)): 28 µM | IC50 (HUVEC): 38.8 ± 0.83 µM | cytotoxic activity on bladder (TCC, 5637), in words [2]: did not show any cytotoxic activity | cytotoxic activity on stomach (AGS), in words (stomach (AGS)): did not show any cytotoxic activity | cytotoxicity in words [3]: moderate or strong cytotoxicity

C=C1CCC2C(C)(C)C(=O)CCC2(C)C1COc1ccc2ccc(=O)oc2c1 (centres unmarked) [Mogoltadone (5), mogoltadone]
IC50 (COLO 205): 31.71 ± 0.15 µM | effect on β-catenin levels (β-catenin [4]): decreased | effect on Bcl-XL protein level (Bcl-XL [5]): did not have a statistically significant effect | cytotoxic effect against CH1, in words [6]: moderate cytotoxic effects | effect on β-catenin protein level (β-catenin [7]): did not have a statistically significant effect | increase in caspase-8 activity compared with the control (caspase-8): 2 fold | effect on procaspase-3 level (procaspase-3): decreased | selectivity index K-562 (K-562; HUVEC versus K-562): > 12.46 | IC50 (K-562): 21.1 ± 0.85 µM | effect on caspase-3 protein level (caspase-3 [8]): did not have a statistically significant effect | cytotoxic activity against SK-MEL-28, in words (melanoma (SK-MEL-28)): did not find any potent cytotoxic activity | selectivity index MCF-7 (MCF-7; HUVEC versus MCF-7): > 8.64 | IC50 (MCF-7): 30.4 ± 0.6 µM | IC50 [9]: > 100 µM | cytotoxic activity against A549, in words (lung (A549); ref Valiahdi et al. 29): did not find any potent cytotoxic activity | effect of combination with cisplatin on cisplatin cytotoxicity ([10]; A2780/RCIS cells, combination with cisplatin): significantly enhanced the cisplatin cytotoxicity | IC50 ([10]; A2780/RCIS, read-out: cytotoxic effect A2780/RCIS): > 50 µM | IC50 (HUVEC): > 200 µM | effect on Bcl-XL level (Bcl-XL [11]): suppressed | cytotoxicity in words [3]: moderate or strong cytotoxicity | increase in caspase-9 activity compared with the control (caspase-9): 1.97 fold | increase in caspase-3 activity compared with the control (caspase-3 [12]): 4.72 fold
